Experimental data reported in patent US20140221499A1, “NOVEL RODENT CONTROL AGENTS AND USES THEREOF” (priority 2011, published 2014).

Biological target: TAAR1 (Mus musculus, UniProt Q923Y8)
Experiment: TAAR1 reporter gene assay
Assay type: cell-based
Method: HEK293 cells were co-transfected with TAAR expression plasmids and a cAMPdependent reporter gene encoding secreted alkaline phosphatase (CRE-SEAP). Transfected cells were incubated with urine extracts from different mammalian species, and phosphatase activity was quantified with a fluorescent substrate as a reporter for TAAR activation. […] Responses to predator odors were not observed in control cells transfected with reporter gene alone. Three other TAARs-TAAR7f, TAAR8c, and TAAR9-detected natural products common to urine of numerous mammalian species, including mouse, rat, human, and carnivores (FIG. 1B, FIG. 11). However, these receptors detect carnivore and non-carnivore urines with similar sensitivity. We reasoned that TAAR4 detected a specific chemical enriched in predator urine, and that this cue can function as a kairomone. […] Basic dichloromethane extracts of bobcat urine were separated by silica gel chromatography, and fractions analyzed with the reporter gene assay (FIG. 2A). Several chromatography fractions containing the TAAR4 activator were obtained and analyzed by mass spectrometry (FIG. 2B).
TAAR functional assays. […] SEAP activity is measured as fluorescence resulting from dephosphorylation of a substrate, 4-methylumbelliferyl phosphate. Fluorescence values were obtained using an EnVision plate reader (Perkin Elmer) and are reported directly without normalization. […]

Chain of TAAR1 (Q923Y8 whole entry): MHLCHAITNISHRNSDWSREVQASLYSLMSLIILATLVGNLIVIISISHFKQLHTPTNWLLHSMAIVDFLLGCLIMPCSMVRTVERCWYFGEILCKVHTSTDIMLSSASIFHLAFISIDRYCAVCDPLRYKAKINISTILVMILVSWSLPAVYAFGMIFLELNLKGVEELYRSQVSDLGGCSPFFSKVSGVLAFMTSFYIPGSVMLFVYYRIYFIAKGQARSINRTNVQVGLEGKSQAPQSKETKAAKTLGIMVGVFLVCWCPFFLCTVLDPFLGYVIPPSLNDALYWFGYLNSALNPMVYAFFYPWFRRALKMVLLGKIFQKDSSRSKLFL

Question: For `NCCc1ccccc1` [2-phenylethylamine], which TAAR1 activation is on record?
Answer: did activate TAAR1
